What follows are compounds tested on phosphorylated ERK downstream of KRAS G12C in MIA PaCa2 cells (assay: Cell p-ERK detection experiment (HTRF) in MIA PaCa2). Conditions: Homo sapiens, MIA PaCa-2, 2 h, MIA PaCa2 cells, 2 hours with compound, Advance ERK phospho-T202/Y204 HTRF kit; read-out: p-ERK IC50.
Assay type: cell-based, human
Excerpt: Raw materials and instruments: MIA PaCa-2 purchased from ATCC; article number: CRL-1420; batch number: 63143594; DMEM purchased from Gibco; article number: 11995-065; batch number: 2186878; FBS purchased from Gibco; article number: 10099-141; batch number: 2109290CP; Horse serum purchased from Gibco; article number: 16050-122; batch number: 1818976; Trypsin-EDTA purchased from Gibco; article number: 25200-072; batch number: 2085552; PS purchased from Gibco; article number: 15140-122; batch number: 2145451; DMSO purchased from VWR AMRESCO; article number: 0231-500ML; batch number: 0457C072; 96-well cell culture plate purchased from Corning; article number: 3599; batch number: 22718601; white opaque 96-well plate purchased from Cisbio; article number: 66PL96025; batch number: N°05; Advance ERK phospho-T202/Y204 kit purchased from Cisbio; article number: 64AERPEH; batch number: 11D; microplate reader purchased from PerkinElmer; model: Envision MLD2105-0020; equipment number 1050369.
MIA PaCa2 was a KRAS G12C mutant human pancreatic cancer cell line cultured in 10% FBS+2.5% Horse serum DMEM culture medium. Cells at logarithmic growth stage were taken, digested with trypsin-EDTA, then collected and counted, and 2.5E4 cells were inoculated in a 96-well cell culture plate and cultured overnight. A 3.16-fold gradient concentration stock solution of 1000× compound was prepared with DMSO, and diluted 200-fold to 5× compound stock solution with culture medium. On the second day after cell inoculation, 5× compound stock solution was added to each cell culture well, with a final concentration of 1× and a DMSO content of 0.1%. DMSO was used as experimental control (control). After the compound was added and cultured for two hours, the residual culture medium was removed. 50 μL of cell lysate (from Advance ERK phospho-T202/Y204 kit, the same below) was added to each well, mixed well and incubated for 30 minutes, and then 16 μL of the mixed solution was transferred to a white opaque 96-well plate, and 16 μL of cell lysate was added to the blank wells. After the transfer was completed, 4 μL of p-ERK HTRF antibody (from Advance ERK phospho-T202/Y204 kit) mixture was added to each well, incubated for 4 hours, and the fluorescence value was read with the microplate reader. The inhibition rate of the compound IR (%)=(RLU control -RLU compound)/(RLU control-RLU blank)×100% was calculated. The gradient dilution concentration of the compound and the corresponding cell proliferation inhibition rate were fitted by Prism 8 four-parameter method, and the IC50 value was calculated. The compounds prepared in the above embodiments of the present disclosure have inhibitory activity of 0.0001 μM to 1 μM on the phosphorylated ERK level downstream of the cell channel of KRAS G12C protein mutant; some compounds have inhibitory activity of 0.001 μM to 1 μM or 0.001 μM to 0.5 μM on phosphorylated ERK level downstream of cell channel of KRAS G12C protein mutant.

SMILES	IC50
C=CC(=O)N1CCN2C(=O)c3c(N4CC[C@H](N(C)C)C4(C)C)nc(-c4c(O)cccc4F)c(Cl)c3OC[C@H]2C1 (single isomer, unassigned) [Z360-2]	25 nM
C=CC(=O)N1CCN2C(=O)c3c(N4CCN(CCOC)C(C)(C)C4)nc(-c4c(O)cccc4F)c(Cl)c3OC[C@H]2C1 [Z321, (6aR)-8-acryloyl-4-chloro-3-(2-fluoro-6-hydroxyphenyl)-1-(4-(2-methoxyethyl)-3,3-dimethylpiperazin-1-yl)-6,6a,7,8,9,10-hexahydro-12H-pyrazino[2,1-c]pyrido[3,4-f][1,4]oxazepin-12-one]	50 nM
C=CC(=O)N1CCN2C(=O)c3c(N4CC(OC)CC4(C)C)nc(-c4c(O)cccc4F)c(Cl)c3OC[C@H]2C1 (stereo partly drawn) [Z244, (6aR)-8-acryloyl-4-chloro-3-(2-fluoro-6-hydroxyphenyl)-1-(4-methoxy-2,2-dimethylpyrrolidin-1-yl)-12-oxo-6,6a,7,8,9,10-hexahydro-12H-pyrazino[2,1-c]pyrido[3,4-f][1,4]oxazepin-12-one]	19 nM
C=CC(=O)N1CCN2C(=O)c3c(N4CCO[C@](C)(COC)C4)nc(-c4c(O)cccc4F)c(Cl)c3OC[C@H]2C1 (single isomer, unassigned) [Z332-1]	130 nM
C=CC(=O)N1CCN2C(=O)c3c(N4C[C@@H](O)CC4(C)C)nc(-c4c(F)ccc(F)c4O)c(F)c3OC[C@H]2C1 (single isomer, unassigned) [Z449-1]	151 nM
C=CC(=O)N1CCN2C(=O)c3c(N4CCN(C(C)=O)C(C)(C)C4)nc(-c4c(O)cccc4F)c(Cl)c3OC[C@H]2C1 [Z315, (6aR)-1-(4-acetyl-3,3-dimethylpiperazin-1-yl)-8-acryloyl-4-chloro-3-(2-fluoro-6-hydroxyphenyl)-6,6a,7,8,9,10-hexahydro-12H-pyrazino[2,1-c]pyrido[3,4-f][1,4]oxazepin-12-one]	62 nM
C=CC(=O)N1CCN2C(=O)c3c(N4C[C@H](CO)CC4(C)C)nc(-c4c(O)cccc4F)c(Cl)c3OC[C@H]2C1 (single isomer, unassigned) [Z240-2]	20 nM
C=CC(=O)N1CCN2C(=O)c3c(N4CCC(N(C)C)C4(C)C)nc(-c4c(O)cccc4F)c(Cl)c3OC[C@H]2C1 (stereo partly drawn) [Z334, (6aR)-8-acryloyl-4-chloro-1-(3-(dimethylamino)-2,2-dimethylpyrrolidin-1-yl)-3-(2-fluoro-6-hydroxyphenyl)-6,6a,7,8,9,10-hexahydro-12H-pyrazino[2,1-c]pyrido[3,4-f][1,4]oxazepin-12-one]	62 nM
C=CC(=O)N1CCN2C(=O)c3c(N4C[C@@H](O)CC4(C)C)nc(-c4c(F)ccc(Cl)c4O)c(F)c3OC[C@H]2C1 (single isomer, unassigned) [Z341-1]	106 nM
C=CC(=O)N1CCN2C(=O)c3c(N4C[C@H](OC)C[C@@H]4C)nc(-c4c(O)cccc4F)c(Cl)c3OC[C@H]2C1 [Z259a, (6aR)-8-acryloyl-4-chloro-3-(2-fluoro-6-hydroxyphenyl)-1-((2S,4R)-4-methoxy-2-methylpyrrolidin-1-yl)-6,6a,7,8,9,10-hexahydro-12H-pyrazino[2,1-c]pyrido[3,4-f][1,4]oxazepin-12-one]	27 nM
C=CC(=O)N1CCN2C(=O)c3c(N4CCN(C)C5(CC5)C4)nc(-c4c(O)cccc4F)c(Cl)c3OC[C@H]2C1 [Z83, (6aR)-8-acryloyl-4-chloro-3-(2-fluoro-6-hydroxyphenyl)-1-(4-methyl-4,7-diazaspiro[2 .5]octan-7-yl)-6,6a,7,8,9,10-hexahydro-12H-pyrazino[2,1-c]pyrido[3,4-f][1,4]oxazepin-12 (6aH)-one]	107 nM
C=CC(=O)N1CCN2C(=O)c3c(N4CCN(CC)C(C)(C)C4)nc(-c4c(O)cccc4F)c(Cl)c3OC[C@H]2C1 [Z322, (6aR)-8-actyloyl-4-chloro-3-(2-fluoro-6-hydroxyphenyl)-1-(4-ethyl-3,3-dimethylpiperazin-1-yl)-6,6a,7,8,9,10-hexahydro-12H-pyrazino[2,1-c]pyrido[3,4-f][1,4]oxazepin-12-one]	36 nM
C=CC(=O)N1CCN2C(=O)c3c(N4CCN(C)C(=O)[C@@H]4C)nc(-c4c(O)cccc4F)c(Cl)c3OC[C@H]2C1 [Z311-1, (6aR)-8-actyloyl-4-chloro-1-((S)-2,4-dimethyl-3-oxopiperazin-1-yl)-3-(2-fluoro-6-hydroxyphenyl)-6,6a,7,8,9,10-hexahydro-12H-pyrazino[2,1-c]pyrido[3,4-f][1,4]oxazepin-12-one]	70 nM
C=CC(=O)N1CCN2C(=O)c3c(N4CCN(S(C)(=O)=O)C[C@@H]4C)nc(-c4c(O)cccc4F)c(Cl)c3OC[C@H]2C1 [Z318-1, (6aR)-8-acryloyl-1-((S)-2-methyl-4-(methylsulfonyl)piperazin-1-yl)-4-chloro-3-(2-fluoro-6-hydroxyphenyl)-6,6a,7,8,9,10-hexahydro-12H-pyrazino[2,1-c]pyrido[3,4-f][1,4]oxazepin-12-one]	87 nM
C=CC(=O)N1CCN2C(=O)c3c(N(C)c4c(C(C)C)ncnc4C(C)C)nc(-c4c(O)cccc4F)c(Cl)c3OC[C@H]2C1 [Z20, (6aR)-8-acryloyl-4-chloro-1-((4,6-diisopropylpyrimidin-5-yl)(methyl)amino)-3-(2-fluoro-6-hydroxyphenyl)-6,6a,7,8,9,10-hexahydro-12H-pyrazino[2,1-c]pyrido[3,4-f][1,4]oxazepin-12-one]	86 nM
C=CC(=O)N1CCN2C(=O)c3c(N4CC(C#N)CC4(C)C)nc(-c4c(O)cccc4F)c(Cl)c3OC[C@H]2C1 (stereo partly drawn) [Z275, (6aR)-8-acryloyl-1-(4-cyano-2,2-dimethylpyrrolidin-1-yl)-4-chloro-3-(2-fluoro-6-hydroxyphenyl)-6,6a,7,8,9,10-hexahydro-12H-pyrazino[2,1-c]pyrido[3,4-f][1,4]oxazepin-12-one]	16 nM
C=CC(=O)N1CCN2C(=O)c3c(N4C[C@H](OC)CC4(C)C)nc(-c4c(O)cccc4F)c(F)c3OC[C@H]2C1 (single isomer, unassigned) [Z256a-2]	17 nM
C=CC(=O)N1CCN2C(=O)c3c(N4C[C@H](N(C)C)CC4(C)C)nc(-c4c(O)cccc4F)c(Cl)c3OC[C@H]2C1 (single isomer, unassigned) [Z324-2]	34 nM
C=CC(=O)N1CCN2C(=O)c3c(N4CCN(C5CC5)C[C@@H]4C)nc(-c4c(O)cccc4F)c(Cl)c3OC[C@H]2C1 [Z312-1, (6aR)-8-acryloyl-4-chloro-1-((S)-4-cyclopropyl-2-methylpiperazin-1-yl)-3-(2-fluoro-6-hydroxyphenyl)-6,6a,7,8,9,10-hexahydro-12H-pyrazino[2,1-c]pyrido[3,4-f][1,4]oxazepin-12-one]	194 nM
C=CC(=O)N1CCN2C(=O)c3c(N4CCC(OC)C4(C)C)nc(-c4c(O)cccc4F)c(Cl)c3OC[C@H]2C1 (stereo partly drawn) [Z241a, (6aR)-8-acryloyl-4-chloro-3-(2-fluoro-6-hydroxyphenyl)-1-(3-methoxy-2,2-dimethylpyrrolidin-1-yl)-6,6a,7,8,9,10-hexahydro-12H-pyrazino[2,1-c]pyrido[3,4-f][1,4]oxazepin-12-one]	12 nM
C=CC(=O)N1CCN2C(=O)c3c(N4CC(CO)CC4(C)C)nc(-c4c(O)cccc4F)c(Cl)c3OC[C@H]2C1 (stereo partly drawn) [Z240, (6aR)-8-acryloyl-4-chloro-3-(2-fluoro-6-hydroxyphenyl)-1-(4-(hydroxymethyl)-2,2-dimethylpyrrolidin-1-yl)-6,6a,7,8,9,10-hexahydro-12H-pyrazino[2,1-c]pyrido[3,4-f][1,4]oxazepin-12-one]	22 nM

Source: patent publication US20230203060A1 (GENFLEET THERAPEUTICS (SHANGHAI) INC., priority 2020, published 2023)
